Experimental data reported in patent US10927075B2, “Compositions and methods relating to the treatment of cancer, autoimmune disease, and neurodegenerative disease” (THE JACKSON LABORATORY, priority 2014, dated 2021).

Legend:
[1] = tested on: HEK293T cells; test: Sister chromatid exchange assay; format: cell-based, human; conditions: 100 nM, relative to DMSO vehicle
Description: C-1523 inhibits Sister Chromatid Exchange. […] To directly measure the effect of C-1523 on RAD51-mediated homologous recombination, we measured sister chromatid exchange and HR repair of an endonuclease generated DSB. Sister chromatid exchange (SCE) is a RAD51-mediated homologous recombination event between replicated sister chromatids in replicative or post-replicative cells, and reflects repair of replication-associated DNA damage. SCE can be measured following differential chromatid labeling by BrdU incorporation (Latt and Schreck, 1980). SCE is known to occur at a high rate in HEK293T cells, with approximately 0.25 spontaneously occurring exchange events per chromosome (FIGS. 14A, 14C) (Londono-Vallejo et al., 2004).
Propidium Iodide and flow cytometry.

[2] = tested on: U2OS cells; test: DR-GFP reporter assay (HR repair of endonuclease generated DSB); format: cell-based, human; conditions: 100 nM or 1 μM
[3] = tested on: primary B-cells from Trp53−/− mice; test: Viability of activated primary B-cells; format: cell-based, mouse; conditions: 100 nM, 4-day activation
Procedure: Cell death mediated by C-1523 is p53-dependent. It was hypothesized that AID-dependent cytotoxicity induced by C-1523 would be associated with p53-mediated apoptosis. To test the importance of p53, a central regulator of cellular responses to DNA damage, viability was measured in mouse primary B-cells from Trp53+/+ versus Trp53−/− mice following exposure to C-1523. […] Caspase 3 activation, a marker of apoptotic cell death, was measured in C-1523 treated B-cells. B-cells were stained with an antibody that recognizes cleaved, activated caspase-3 (AC3) and the number of AC3-positive cells was measured via immunofluorescence microscopy. Following 10 Gy of ionizing irradiation Trp53+/+(WT), but not Trp53−/− cultures show a >30-fold increase in the percentage of AC3+ cells, confirming Trp53 dependent apoptosis in these cells after DNA damage. […] In order to more completely rule out apoptosis as the mode of cell death following C-1523 treatment in B cells, the expression of other common markers of apoptotic induction was examined via Western Blot.
(§1) Cell lines and cell culture. […] Immunofluorescence.

[4] = tested on: CCRF-SB cells; test: Viability of human B cell tumor cell line (Trypan Blue); format: cell-based
Procedure: (§2) FIG. 15A depicts an analysis of primary WT (AID+/+, closed markers) and AID−/− (open markers) murine B cell proliferation under activating conditions (αCD40 and IL-4 on days 0 and 2) and treated with the indicated doses of C-1523 for 4 days. Measurement of cell proliferation was determined by Trypan Blue staining and counting of viable, non-staining, cells via hemocytometer. Data are represented as the mean cell count for each condition. FIG. 15B depicts data from experiments in which primary B cells from A were stained with PI on day 4 and analyzed via flow cytometry for the percentage of cells that were non-viable, PI-positive (PI+). FIG. 15C depicts RT-PCR analysis of AID expression in cultured human cell lines. Water (H2O) and RNA from HEK293T cells were employed as negative controls for template and AID expression, respectively, and human activated B lymphocyte RNA (Stim B) was used as a positive control. GAPDH expression was included as a loading control. FIG. 15D depicts viability analysis of CCRF-SB, MEC-1, and MEC-2 cells after 6 days in culture with the indicated concentrations of C-1523, 150 μM DIDS, or DMSO vehicle. Viability was determined by Trypan Blue staining and counting via hemocytometer. FIG. 15E depicts representative immunofluorescence images of phosphorylated γH2AX (green) and nuclei (DAPI, blue) in primary murine splenic B cells from AID−/− (left) or AID+/+ (WT, right) mice. Cells were activated with αCD40 and IL-4 and treated with 100 nM C-1523 for 3 d. Scale bars, 10 μM. FIG. 15F depicts quantitation of foci observed in AID−/− and WT cells represented in FIG. 15E. Data were grouped into categories of cells with low (1-2 foci per nucleus), moderate (3-10 foci per nucleus), or high (>10 foci per nucleus) amounts of DNA damage. Error bars represent the SEM for three independent experiments.
(§3) FIG. 23 depicts graphs of viability analysis for human cancer cell lines treated with C-1523. The acute lymphoblastic leukemia (ALL) line CCRF-SB and the chronic lymphocytic leukemia lines MEC1 and MEC2 were treated with vehicle (DMSO) or 100 nM C-1523, and viability was measured by Tyrpan blue exclusion. All three lines express AID and are sensitive to C-1523 treatment.
(§4) The effect of C-1523 on the viability of AID-expressing human B cell tumor cell lines was further tested ([…]). CCRF-SB is an acute lymphoblastic leukemia cell line derived from a buffy coat preparation (Foley et al., 1968). MEC-1 and MEC-2 are cell lines derived from a patient with chronic lymphocytic leukemia at two different timepoints (before and after fludarabine and rituximab therapy) (Stacchini et al., 1999). C-1523 was tested in these cell lines over a dose range from 1 to 1000 nM, in log increments, and compared to 150 μM DIDS. […] Biphasic or hormetic responses for small molecules can reflect a number of biochemical/biological mechanisms (Calabrese, 2013).
as §1

[5] = tested on: MEC-1 cells; test: as above; format: cell-based
Procedure: as §2, §3, §4, §1

[6] = tested on: MEC-2 cells; test: as above; format: cell-based
Procedure: as §2, §3, §4, §1

[7] = tested on: Primary mouse B cells (WT); test: Micronuclei assay; format: cell-based; conditions: 100 nM, WT cells, 3 days
[8] = tested on: MEC-1 cells; test: Micronuclei assay; format: cell-based, human; conditions: 100 nM for 3 days
[9] = tested on: AID-expressing mouse B-lymphocytes

## CC(=O)Nc1ccc(/C=C/c2ccc(NC(=S)NC(C)C)cc2S(=O)(=O)O)c(S(=O)(=O)O)c1 [C-1523, (E)-5-acetamido-2-(4-(3-isopropylthioureido)-2-sulfonatostyryl)benzenesulfonate]
[1]
  median number of SCE events per chromosome: significantly reduced
[2]
  change in GFP-positive cells: no significant change
[3]
  viability: did not show reduced viability
[4]; 100 nM
  sensitivity (viability): sensitive
[4]; 1000 nM
  viability reduction at highest dose: less than that observed after treatment with 100 nM
[4]; 1 to 1000 nM
  concentration of greatest viability reduction: 100 nM
[4]; 1 to 1000 nM, 6 days
  viability response over dose range: dose-dependent viability response
[5]; 100 nM
  sensitivity (viability): sensitive
[5]; 1000 nM
  viability reduction at highest dose: less than that observed after treatment with 100 nM
[5]; 1 to 1000 nM
  concentration of greatest viability reduction: 100 nM
[5]; 1 to 1000 nM, 6 days
  viability response over dose range: dose-dependent viability response
[6]; 100 nM
  sensitivity (viability): sensitive
[6]; 1 to 1000 nM, 6 days
  viability response over dose range: sensitive at all doses tested
[7]
  increase in micronuclei compared to DMSO: 9 fold
[8]
  micronuclei in treated cells versus vehicle: approximately 3.5 fold
[9]
  concentration eliciting AID-specific cytotoxicity: 100 nM
  rank among DIDS analogs tested: most potent DIDS analog tested
[9]; 10 μM
  AID+:AID− activity score: effect in AID+ cells versus corresponding AID- cells: roughly 6 fold
[9]; Example 3 summary
  effectiveness relative to DIDS: 1000 times
[9]; dose response data
  potency relative to DIDS: at least 1500 times
